Measurements: PubChem BioAssay (NCI)
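Each compound was tested at five concentrations against cells in 96-well plates for 48 hours. GI50: concentration for 50% inhibition of growth. The concentration for full growth arrest is given as TGI.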

Assays:
Assay in all cases: DTP human tumour cell line panel, 48 h
LOX IMVI melanoma = system: LOX IMVI melanoma
CAKI-1 renal = system: CAKI-1 renal
MOLT-4 leukemia = system: MOLT-4 leukemia
HCT-15 colon = system: HCT-15 colon
DU-145 prostate = system: DU-145 prostate
A549 NSCLC = system: A549 NSCLC
NCI-H460 lung = system: NCI-H460 lung
IGROV1 ovarian = system: IGROV1 ovarian
HT29 colon = system: HT29 colon
MDA-N = system: MDA-N

| Compound | GI50 (LOX IMVI melanoma) [µM] | TGI (LOX IMVI melanoma) [µM] | GI50 (CAKI-1 renal) [µM] | TGI (CAKI-1 renal) [µM] | GI50 (MOLT-4 leukemia) [µM] | TGI (MOLT-4 leukemia) [µM] | GI50 (HCT-15 colon) [µM] | TGI (HCT-15 colon) [µM] | GI50 (DU-145 prostate) [µM] | TGI (DU-145 prostate) [µM] | GI50 (A549 NSCLC) [µM] | TGI (A549 NSCLC) [µM] | GI50 (NCI-H460 lung) [µM] | TGI (NCI-H460 lung) [µM] | GI50 (IGROV1 ovarian) [µM] | TGI (IGROV1 ovarian) [µM] | GI50 (HT29 colon) [µM] | TGI (HT29 colon) [µM] | TGI (MDA-N) [µM] | GI50 (MDA-N) [µM] |
| --- | --- | --- | --- | --- | --- | --- | --- | --- | --- | --- | --- | --- | --- | --- | --- | --- | --- | --- | --- | --- |
| Oc1ccc(-c2nnc3sc(-c4ccc(F)cc4)nn23)cc1 | 34.5 | > 100 | 48.8 | > 100 | 33.6 | > 100 | > 100 | > 100 | 51.2 | > 100 | > 100 | > 100 | > 100 | > 100 | 55.8 | > 100 | > 100 | > 100 | – | – |
| COC(=O)NN(C(=O)OC)c1c(-c2ccccc2)nc(SC)n1N | – | > 100 | – | > 100 | – | > 100 | – | > 100 | – | > 100 | – | > 100 | – | > 100 | – | > 100 | – | – | > 100 | – |
| CN(C)c1ccc(-c2c(C#N)c(S)n(NS(=O)(=O)c3ccccc3)c(=O)c2C#N)cc1 | – | > 100 | – | 76.1 | – | > 100 | – | 57.7 | – | > 100 | – | > 100 | – | – | – | 73.5 | – | – | 86.5 | – |
| CCC(C(=O)O)c1ccc(OCc2ccccc2)cc1 (stereo not drawn) | – | > 100 | – | > 100 | – | > 100 | – | – | – | – | – | > 100 | – | > 100 | – | > 100 | – | > 100 | – | – |
| Cc1nn(C(=O)Cc2ccccc2)c2c1C(c1ccccc1O)SC(N)=N2 (stereo not drawn) | – | > 100 | – | > 100 | – | > 100 | – | > 100 | – | > 100 | – | > 100 | – | > 100 | – | > 100 | – | > 100 | – | – |
| CN(C)C(CN)CC1=C(CC(CN)N(C)C)CCC1 (stereo not drawn) | – | > 100 | – | > 100 | – | > 100 | – | > 100 | – | – | – | > 100 | – | > 100 | – | > 100 | – | > 100 | – | – |
| NC(=O)C(=O)N/N=C1/c2ccccc2CC1C1(O)C(=O)Nc2c(Cl)cc(Cl)cc21 (stereo not drawn) | – | > 100 | – | > 100 | – | > 100 | – | > 100 | – | – | – | > 100 | – | > 100 | – | > 100 | – | > 100 | – | – |
| CCN(CC)CCOC(NC(C)=O)(c1ccccc1)c1ccccc1 | – | – | – | – | – | > 100 | – | > 100 | – | > 100 | – | > 100 | – | > 100 | – | > 100 | – | > 100 | – | – |
| CCOC(=O)C1=C(C(C)=O)CSC(c2ccccc2)=N1 | – | > 100 | – | > 100 | – | > 100 | – | > 100 | – | – | – | > 100 | – | > 100 | – | > 100 | – | > 100 | – | – |
| O=C(O)C1CC(c2ccc(F)cc2)=Nc2ccc(F)cc2S1 (stereo not drawn) | – | – | – | > 100 | – | > 100 | – | > 100 | – | > 100 | – | > 100 | – | > 100 | – | > 100 | – | > 100 | > 100 | – |
| COc1ccc(/C(=N/O)c2ccccc2-c2nc3ccccc3c(=O)n2-c2ccc(S(=O)(=O)Nc3ncccn3)cc2)cc1C | – | – | – | > 31.6 | – | 23.8 | – | 28.6 | – | > 31.6 | – | > 31.6 | – | > 31.6 | – | > 31.6 | – | – | > 31.6 | – |
| COc1cc(/C=C2\C(=O)N(C(=O)Cc3ccccc3)N=C2C)ccc1O | – | > 100 | – | > 100 | – | > 100 | – | > 100 | – | – | – | > 100 | – | – | – | – | – | – | – | – |
| O=C(CP(=O)(O)O)c1cccs1 | – | > 100 | – | > 100 | – | – | – | > 100 | – | – | – | > 100 | – | > 100 | – | > 100 | – | > 100 | – | – |
| CCNC(=O)Nc1ccccn1 | – | – | – | > 100 | – | > 100 | – | – | – | > 100 | – | > 100 | – | > 100 | – | > 100 | – | > 100 | > 100 | – |
| COc1cc2c(cc1OCCCCOc1cc(-c3ccc(F)cc3)nc(C)n1)N=C[C@@H]1CCCN1C2=O | – | 0.663 | – | 2.05 | – | 0.279 | – | 2.09 | – | 50 | – | 10.8 | – | – | – | 12.2 | – | 3.92 | – | – |
| CCCCn1c2c(n(CCCC)c1=S)-c1c(n(CCCC)c(=S)n1CCCC)S[Se][Se]S2 | – | 27.2 | – | – | – | > 37.2 | – | 15.9 | – | > 60.4 | – | > 88.7 | – | > 80 | – | 9.16 | – | 32.5 | 36.3 | – |
| COCOc1ccc(OC)cc1 | – | > 100 | – | > 100 | – | > 100 | – | > 100 | – | – | – | > 100 | – | > 100 | – | > 100 | – | > 100 | – | – |
| CCC[C@H]1C(=O)N=C(N)N1C(=O)OCc1ccccc1 | – | > 100 | – | > 100 | – | > 100 | – | > 100 | – | – | – | – | – | > 100 | – | > 100 | – | > 100 | > 100 | – |
| CCCCN1CCN(c2ccc3nc(-c4ccc5nc(-c6ccc(C(F)(F)F)cc6)[nH]c5c4)[nH]c3c2)CC1 | 0.839 | 2.27 | 1.38 | 2.69 | 1.07 | 2.59 | 0.303 | 1.1 | 0.915 | 2.36 | 0.926 | 2.24 | 0.64 | 1.33 | – | – | 0.385 | 1.45 | – | – |
| N#Cc1c(-c2ccccc2)/c(=C\Nc2ccc(Cl)cc2)c(=O)n2c1nc1ccccc12 | – | > 100 | – | 94.4 | – | – | – | > 100 | – | – | – | > 100 | – | > 100 | – | > 100 | – | – | > 100 | – |
| CC(C)(C)N=c1n(C(C)(C)C)oc(=O)n1C(C)(C)C | – | > 100 | – | > 100 | – | > 100 | – | > 100 | – | – | – | > 100 | – | > 100 | – | > 100 | – | > 100 | > 100 | – |
| CCCCCCCCCC[C@H](O)[C@H]1CC[C@H]([C@H]2CC[C@H]([C@H](O)CC[C@H](O)CCCCCCC[C@@H](O)CC3=C[C@H](C)OC3=O)O2)O1 | 1.26 | > 100 | – | > 100 | 19.9 | 80.1 | – | > 100 | – | – | 7.18 | > 100 | – | > 100 | – | > 100 | – | – | > 100 | 6.36 |
| Cc1cn2c(/C=C3/C(=O)Nc4cccc(Cl)c43)c(Cl)nc2s1 | – | > 100 | – | > 100 | – | > 100 | – | > 100 | – | > 100 | – | > 100 | – | – | – | > 100 | – | > 100 | > 100 | – |
| CCC12C[N+]3([O-])CCc4c([nH]c5ccccc45)C(C(=O)OC)(c4cc5c(cc4OC)N(C)C4C(O)(C(=O)OC)C(OC(C)=O)C6(CC)C=CCN7CCC54C76)CC(C3)C1O2 (stereo not drawn) | – | 51.7 | – | 30.1 | – | 3.44 | – | 24.8 | – | – | – | 29.9 | – | 43.5 | – | 14.9 | – | 17.2 | – | – |
